Assay results taken from patent publication US9902725B2, “Heterocyclic derivatives as RORgamma modulators” (GENFIT, priority 2014, dated 2018).

Assays:
[1] = biological target: T1, RORγt ligand-binding domain (RORγt-LBD) (Homo sapiens, UniProt P51449); test: Time-resolved FRET (TR-FRET) RORγt coactivator assay; assay type: biochemical; settings: GST-RORγ-LBD, biotinylated RIP140 peptide, coactivator displacement
T1 construct: 20 nM recombinantly expressed RORγ-LBD fused to GST
T1 sequence (P51449 269-508 limits assumed): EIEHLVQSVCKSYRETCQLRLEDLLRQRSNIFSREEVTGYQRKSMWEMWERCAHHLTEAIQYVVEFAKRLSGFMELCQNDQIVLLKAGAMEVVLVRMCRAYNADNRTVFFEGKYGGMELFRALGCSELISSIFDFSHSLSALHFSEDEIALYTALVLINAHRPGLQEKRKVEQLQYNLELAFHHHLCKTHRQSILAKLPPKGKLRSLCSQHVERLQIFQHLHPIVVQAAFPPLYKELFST

human RORγt [2] = biological target: T2, human RORγt (Homo sapiens, UniProt P51449); test: RORE luciferase/RORγt transactivation assay; assay type: cell-based; set-up: expressed in transfected cells; settings: COS-7 cells transfected with IL-17 promoter luciferase reporter and RORγt plasmid, 20 h
T2 sequence (P51449 1-497 isoform P51449-2): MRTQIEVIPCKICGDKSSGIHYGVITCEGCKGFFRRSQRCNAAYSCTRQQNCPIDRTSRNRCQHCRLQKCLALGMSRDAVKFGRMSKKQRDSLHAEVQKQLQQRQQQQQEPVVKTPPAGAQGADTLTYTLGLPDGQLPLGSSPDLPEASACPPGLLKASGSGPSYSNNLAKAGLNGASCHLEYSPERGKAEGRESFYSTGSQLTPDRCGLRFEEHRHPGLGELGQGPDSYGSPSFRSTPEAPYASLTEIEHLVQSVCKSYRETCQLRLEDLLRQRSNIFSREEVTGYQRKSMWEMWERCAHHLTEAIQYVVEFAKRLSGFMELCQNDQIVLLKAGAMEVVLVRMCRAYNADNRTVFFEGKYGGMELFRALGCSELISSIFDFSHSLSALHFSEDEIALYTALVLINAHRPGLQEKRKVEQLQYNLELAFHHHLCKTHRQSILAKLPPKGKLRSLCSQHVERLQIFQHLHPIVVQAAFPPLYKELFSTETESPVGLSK
Excerpt: It is well known that RORγ binds to a conserved non-coding sequence (CNS) enhancer element in the IL-17 promoter. Accordingly, we have used in this assay a luciferase reporter gene construct that contains the human IL-17 promoter fragment with RORγ-specific CNS enhancer element and a RORγt overexpressing plasmid, to indirectly assess the effect of compounds on RORγ activity. Inhibition of RORγ activity by test compounds will result in a decrease in luciferase activity in COS-7 cells transfected with the reporter construct.
Monkey Kidney COS-7 cell line are maintained in a standard culture medium Dulbecco's modified Eagle's minimal (DMEM) medium supplemented with 10% fetal calf serum, 1% sodium pyruvate, 1% essential amino acids and 1% antibiotics at 37° C. in a humidified atmosphere of 5% CO2 and 95% air. Culture medium was changed every 2 days.
The 4.3 Kb human IL-17 promoter containing the RORγ-specific CNS enhancer element was PCR amplified from human genomic DNA and cloned into a pGL3-TKLuc2Cp reporter plasmid. To overexpress RORγt, the full-length cDNA of human RORγt (identical to published sequence NM 001001523) was cloned without any restriction into pcdna3.1DV5-His-topo to generate the RORγt overexpression plasmid “RORγt_FL_h_pcDNA3.1DV5-His-TOPO_1”.
The luciferase reporter plasmid and the RORγt overexpression plasmid were transfected into COS-7 cell line using 4 μLJetPEITM/μg of DNA. Briefly, 150 ng of DNA (ration ½ between RORE-Tk Luc2Cp and cDNA RORγt or the empty vector for the negative control) was served to transfect adherent COS-7 cells in a […] culture flask, in complete medium (see cos-7 cell line culture). Cells were incubated for 24 hours in a humidified atmosphere of 5% CO2 and 95% air
Cells were then detached (using trypsin) and washed by centrifugation at 300 g for 10 minutes. Cell pellet was resuspended in serum free/phenol red free DMEM and seeded in 384 well plates at a density of 10000 cells/well and then incubated for 4 h at 37° C.
Compounds were dissolved in 100% DMSO to obtain 10 mM stock solutions. For each compound, test concentrations were diluted in serum free/phenol red free DMEM using the Genesis Freedom 200™ (TECAN) and added to the cells to obtain a 0.3% DMSO final concentration (in a final volume of 40 μL per well). T091317 was used as reference compound. Cells were incubated in presence of compounds for an additional 20 h at 37° C. in a humidified atmosphere of 5% CO2 and 95% air
The luciferase activity was then measured with 40 μL/well steady-Glo Luciferase assay system (Promega, Madison, Wis.) and after incubation at room temperature for 30 minutes. The luminescence was estimated using the Ultra384 reader (TECAN). Data were collected and analyzed using GraphPad Prism software (GraphPad Software V5.02, San Diego Calif. USA). IC50 in μM and Emax in % were reported for each compound.

human RORγt [3] = biological target: T2, human RORγt; test: IL-17 secretion from EL4 murine lymphoma overexpressing human RORγt; assay type: cell-based; set-up: expressed in transfected cells; host or cells: EL-4 murine lymphoma; settings: IL-17 secretion inhibition, PMA and ionomycin stimulation, 24 h
Procedure, shortened: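 EL4 murine lymphoma cells electroporated with hRORγt plasmid, seeded 150000 cells/well, pretreated with compound, then stimulated with PMA (10 ng/mL) and ionomycin (1 μM final) with compound for a further 24 h at 37° C. IL-17 in supernatant measured by HTRF or ELISA.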

For `Cc1ccc(C(NC(=O)Cc2ccc3[nH]cc(CCC(=O)O)c3c2)c2ccccc2)c(Cl)c1` (centres unmarked) [Cpd. 7, 3-[5-({[(2-chloro-4-methylphenyl)(phenyl)methyl]carbamoyl}methyl)-1H-indol-3-yl]propanoic acid], the IC50 [1] was less than 1 µM and the IC50 (human RORγt [2]) was 1 to 10 µM.

With `Cc1ccc(C(NC(=O)Cc2ccc3[nH]cc(CCC(=O)O)c3c2)c2ccccc2)c(Br)c1` (centres unmarked) [Cpd. 9, 3-[5-({[(2-bromo-4-methylphenyl)(phenyl)methyl]carbamoyl}methyl)-1H-indol-3-yl]propanoic acid] the IC50 [1] was less than 1 µM and the IC50 (human RORγt [2]) was 1 to 10 µM.

`Cc1ccc(C(NC(=O)Cc2ccc3[nH]cc(CCC(=O)O)c3c2)c2ccccc2)c(N2CCCC2)n1` (centres unmarked) [Cpd. 15, 3-{5-[({[6-methyl-2-(pyrrolidin-1-yl)pyridin-3-yl](phenyl)methyl}carbamoyl)methyl]-1H-indol-3-yl}propanoic acid] showed an IC50 (human RORγt [3]) of 10 to 30 µM, an IC50 [1] of less than 1 µM and an IC50 (human RORγt [2]) of 1 to 10 µM.

`Cc1ccc(C(NC(=O)Cc2ccc3[nH]cc(CCC(=O)O)c3c2)c2ccccc2)c(F)c1` (centres unmarked) [Cpd. 17, 3-[5-({[(2-fluoro-4-methylphenyl)(phenyl)methyl]carbamoyl}methyl)-1H-indol-3-yl]propanoic acid] was tested, and the IC50 [1] was 1 to 10 µM and the IC50 (human RORγt [2]) was greater than 10 µM.

`Cc1ccc(F)c(C(NC(=O)Cc2ccc3[nH]cc(CCC(=O)O)c3c2)c2ccccc2)c1` (centres unmarked) [Cpd. 19, 3-[5-({[(2-fluoro-5-methylphenyl)(phenyl)methyl]carbamoyl}methyl)-1H-indol-3-yl]propanoic acid] gave an IC50 [1] of 1 to 10 µM and an IC50 (human RORγt [2]) greater than 10 µM.

Molecule `Cc1ccc(C(NC(=O)Cc2ccc3[nH]cc(CCC(=O)O)c3c2)c2ccccn2)c(C)c1` (centres unmarked) [Cpd. 21, 3-[5-({[(2,4-dimethylphenyl)(pyridin-2-yl)methyl]carbamoyl}methyl)-1H-indol-3-yl]propanoic acid] has an IC50 [1] of less than 1 µM and an IC50 (human RORγt [2]) greater than 10 µM.

Molecule `O=C(O)Cc1c[nH]c2ccc(CC(=O)NC(c3ccccc3)c3ccccc3N3CCCCC3)cc12` (centres unmarked) [Cpd. 39, 2-{5-[({phenyl[2-(piperidin-1-yl)phenyl]methyl}carbamoyl)methyl]-1H-indol-3-yl}acetic acid] has an IC50 [1] of 1 to 10 µM and an IC50 (human RORγt [2]) of 1 to 10 µM.

`Cc1ccc(C(NC(=O)Cc2ccc3[nH]cc(CCC(=O)O)c3c2)c2cccnc2)c(C)c1` (centres unmarked) [compound 27, 3-[5-({[(2,4-dimethylphenyl)(pyridin-3-yl)methyl]carbamoyl}methyl)-1H-indol-3-yl]propanoic acid] showed an IC50 [1] of 1 to 10 µM and an IC50 (human RORγt [2]) greater than 10 µM.

With `Cc1ccc(C(NC(=O)Cc2ccc3[nH]cc(CCC(=O)O)c3c2)c2ccccc2)c2ncccc12` (centres unmarked) [compound 31, 3-[5-({[(5-methylquinolin-8-yl)(phenyl)methyl]carbamoyl}methyl)-1H-indol-3-yl]propanoic acid] the IC50 [1] was less than 1 µM and the IC50 (human RORγt [2]) was greater than 10 µM.

For `Cc1cc(Cl)ccc1C(NC(=O)Cc1ccc2[nH]cc(CCC(=O)O)c2c1)c1ccccc1` (centres unmarked) [compound 33, 3-[5-({[(4-chloro-2-methylphenyl)(phenyl)methyl]carbamoyl}methyl)-1H-indol-3-yl]propanoic acid], the IC50 [1] was less than 1 µM and the IC50 (human RORγt [2]) was 1 to 10 µM.

Molecule `O=C(O)CCc1c[nH]c2ccc(CC(=O)NC(c3ccccc3)c3ccccc3N3CCCCCC3)cc12` (centres unmarked) [compound 35, 3-{5-[({[2-(azepan-1-yl)phenyl](phenyl)methyl}carbamoyl)methyl]-1H-indol-3-yl}propanoic acid] has an IC50 (human RORγt [3]) of 1 to 10 µM, an IC50 [1] of less than 1 µM and an IC50 (human RORγt [2]) of less than 1 µM.

Work on `Cc1ccc(C(NC(=O)Cc2ccc3[nH]cc(CCC(=O)O)c3c2)c2ccccc2)c2ccccc12` (centres unmarked) [compound 37, 3-[5-({[(4-methylnaphthalen-1-yl)(phenyl)methyl]carbamoyl}methyl)-1H-indol-3-yl]propanoic acid] yielded an IC50 (human RORγt [3]) of 10 to 30 µM, an IC50 [1] of less than 1 µM and an IC50 (human RORγt [2]) of 1 to 10 µM.

`CC(C)CC(NC(=O)Cc1ccc2[nH]cc(CCC(=O)O)c2c1)c1ccccc1N1CCCCCC1` (centres unmarked) [compound 198, 3-{5-[({1-[2-(azepan-1-yl)phenyl]-3-methylbutyl}carbamoyl)methyl]-1H-indol-3-yl}propanoic acid] showed an IC50 (human RORγt [3]) of 1 to 10 µM and an IC50 [1] of less than 1 µM.

`Cc1ccc(C(NC(=O)Cc2ccc3[nH]cc(CCC(=O)O)c3c2)c2ccccc2)c(N2CC=CC2)c1` (centres unmarked) [compound 200, 3-{5-[({[2-(2,5-dihydro-1H-pyrrol-1-yl)-4-methylphenyl](phenyl)methyl}carbamoyl)methyl]-1H-indol-3-yl}propanoic acid] gave an IC50 (human RORγt [3]) of 1 to 10 µM and an IC50 [1] of less than 1 µM.

`Cc1cccc(C(NC(=O)Cc2ccc3[nH]cc(CCC(=O)O)c3c2)c2ccccc2)c1N1CCCCC1` (centres unmarked) [compound 202, 3-{5-[({[3-methyl-2-(piperidin-1-yl)phenyl](phenyl)methyl}carbamoyl)methyl]-1H-indol-3-yl}propanoic acid] gave an IC50 (human RORγt [3]) of 1 to 10 µM and an IC50 [1] of less than 1 µM.

`Cc1ccc(C(C(=O)NCc2ccc3[nH]cc(CCC(=O)O)c3c2)c2ccccc2)c(N2CCCCC2)c1` (centres unmarked) [compound 209, 3-[5-({2-[4-methyl-2-(piperidin-1-yl)phenyl]-2-phenylacetamido}methyl)-1H-indol-3-yl]propanoic acid] gave an IC50 (human RORγt [3]) of 1 to 10 µM and an IC50 [1] of less than 1 µM.

For `O=C(O)CCCCc1c[nH]c2ccc(CC(=O)NC(c3ccccc3)c3ccccc3N3CCCCC3)cc12` (centres unmarked) [compound 217, 5-{5-[({phenyl[2-(piperidin-1-yl)phenyl]methyl}carbamoyl)methyl]-1H-indol-3-yl}pentanoic acid], the IC50 (human RORγt [3]) was 1 to 10 µM and the IC50 [1] was less than 1 µM.

`CC(C)(C)OC(=O)CCc1c[nH]c2ccc(CC(=O)NC(c3ccccc3)c3ccc(O)cc3N3CCCCC3)cc12` (centres unmarked) [compound 264, tert-butyl 3-{5-[({[4-hydroxy-2-(piperidin-1-yl)phenyl](phenyl)methyl}carbamoyl)methyl]-1H-indol-3-yl}propanoate] showed an IC50 (human RORγt [3]) of 1 to 10 µM and an IC50 [1] of 1 to 10 µM.

Work on `Cc1ccc(C(NC(=O)Cc2ccc3[nH]cc(CCC(=O)O)c3c2)c2ccc(C)o2)c(N2CCCCC2)c1` (centres unmarked) [compound 268, 3-{5-[({[4-methyl-2-(piperidin-1-yl)phenyl](5-methylfuran-2-yl)methyl}carbamoyl)methyl]-1H-indol-3-yl}propanoic acid] yielded an IC50 [1] of less than 1 µM and an IC50 (human RORγt [2]) of less than 1 µM.
